Results from a melting point compilation (Tetko et al.; mined from patent text by program, amines drawn as free bases though some values may be those of a salt).

melting point [°C]	SMILES
97 to 98	CCn1cc(CC(=O)O)c(OCCCc2ccc(Cc3ccccn3)cc2OC(C)C)n1
153 to 154	O=C1C(c2ccccc2)=C(c2ccccc2)C(=O)N1CCc1ccc(F)cc1
214 to 217	Cc1ccc(C(=O)Nc2ccc(N3CCN(C)CC3)c(C(F)(F)F)c2)cc1Nc1nccc(-c2cccnc2)n1
242 to 245	COc1cc2ncc(C#N)c(Nc3cccc(C(=O)O)c3C)c2cc1OC
272 to 273	Cn1c(=O)c(-c2ccc(Cl)cc2Cl)cc2c3cc(-c4csc(N)n4)ccc3n(C)c21
101 to 103	CCCCc1nc(Cl)c(CO)n1Cc1ccc(N)cc1
147 to 149	CCOC(=O)N1CCN(c2c(F)cc([N+](=O)[O-])c(F)c2CO)CC1
88 to 100	Cc1nccn1CC1CCC(Nc2ccccc2I)=CC1=O (centres undefined)
111	CCCSc1c[nH]nc1C1=CCCN(C)C1
64	CCOC1C(=O)NC(=O)N1CCCc1ccccc1 (centres undefined)
91 to 92	COC(=O)/C(=C\C=C\c1sc2ccccc2c1C)OC
196	COc1cc2c(sc3nc(C)c(CO)n32)c(OC)c1OC
178 to 180	CC1(C)CC(=O)C=C(c2ccc(OCC(=O)O)c(Cl)c2Cl)C1
42 to 46	FC(F)Sc1ccc(-c2ccc(Cl)cc2)[nH]1
156 to 162	COC(=O)c1ccc2c(c1)ncn2Cc1ccccc1
85 to 86	CSC(=O)c1c(C(F)F)nc(C(F)(F)F)c(C(=O)SC)c1NC1CC1
72 to 74	CCCC(=NOCC)C1=C(O)CC(c2ccc(S(C)=O)cc2)CC1=O (centres undefined)
52	CC(C)(C)[Si](C)(C)O[C@H]1CCC[C@@]2(C)[C@H]1CC[C@@H]2[C@]1(C)CC(=O)CO1
86 to 87	CCC(=O)Oc1c(OC)c(OC)c(OC(C)=O)c2ccc(Cl)cc12
113 to 114	C=CCn1nc(C)c(C(=O)c2ccc(Cl)cc2Cl)c1OS(=O)(=O)c1ccc(C)cc1
123 to 125	Cc1cn2cccc(C=O)c2n1
104 to 106	CC1(C2CCCC2)Cc2cc(OS(=O)(=O)C(F)(F)F)c(Cl)c(Cl)c2C1=O (single isomer, unassigned; (+))
353 to 354	O=c1[nH]c2c(I)c(Cl)c(Cl)c(I)c2[nH]c1=O
169 to 172	CS(=O)(=O)c1ccc(SC2SCC(O)C(O)C2O)cc1 (centres undefined)

melting point [°C]	SMILES
97 to 100	CCN1CC(=O)N(CC)c2cc(Nc3ncc(Cl)c(Nc4ccc(OC)cc4-n4cccn4)n3)c(OC)cc2C1
141 to 142	COc1nn(-c2ccc(CBr)c(Cl)c2)nc1Cl
218 to 220	CC(=O)NC[C@H]1CN(c2ccc(-c3noc(C(N)=O)n3)c(F)c2)C(=O)O1
189 to 191	CCOC(=O)c1cn(C)c2cc(-c3ccccc3)sc2c1=O
158	O=C1NC(=C(Br)c2ccccc2)C(=O)C1=NO
154	O=C(C(c1ccc(Cl)cc1)c1c(Cl)cc(-n2ncc(=O)[nH]c2=O)cc1Cl)N1CCCC1 (centres undefined)
188	O=Cc1ccc(Sc2nc3ncccc3[nH]2)o1
96 to 98	CCOCCn1c(C(=O)C2CCN(C(=O)OC(C)(C)C)CC2)nc2ccccc21
81 to 83	CCOC(=O)c1cnn(-c2ccc(Cl)cc2Cl)c1C(F)(F)F
240 to 242	COC(=O)c1ccc(C(=O)NS(=O)(=O)c2ccc(C(=O)NCCc3ccc(OC)cc3)cc2)cn1
245	CC1(C)CC(=O)c2c(Sc3ncccn3)sc(-c3cc[nH]n3)c2C1
160	CC(C)C(=O)CC1NC(=O)c2ccsc2-n2cccc21 (centres undefined)
126	O=C(c1ccccc1[N+](=O)[O-])C1CCN(C(=O)C(F)(F)F)CC1
223 to 225	NS(=O)(=O)c1cc2cccnc2s1
> 55	OC1(CNCc2ccccn2)CCN(CCCc2c[nH]c3ccc(-n4cnnc4)cc23)CC1
121 to 124	CCc1nc2c(cnn2CC)c(NC2CCOCC2)c1CNC(=O)c1cccc(C(=O)NCc2ccc(C)c(-c3cccc(CN4CCN(C)CC4)c3)c2)c1
> 250	N#Cc1ccc(-c2c3c(cc4ccc(O)cc24)-c2ccc(O)cc2CO3)cc1
140 to 145	CN(NC(=O)OC(C)(C)C)C(=O)C(C)(C)ON1C(=O)c2ccccc2C1=O
180 to 185	CCOC(=O)c1cn(CC)c2cc(-c3cc(C)no3)ccc2c1=O
120 to 122	CC1=CC(C)(C)Nc2ccc3c(c21)C(=C1SCCCS1)Oc1ccc(F)cc1-3
83 to 84	Cc1ccc(CCC(C)NCC(O)c2cc3ccccc3o2)cc1 (centres undefined)
291 to 292	O=C(O)c1cn(-c2ccc(F)cc2F)c2cc(-c3ccncc3)ccc2c1=O
136 to 137	CCOC(=O)C(O)=Cc1cc(OCc2ccccc2)ncn1
230	Cn1c(-c2ccccc2)c(C2CCC(C(=O)O)(C(=O)O)CC2)c2ccccc21

melting point [°C]	SMILES
195 to 198	CCOC(=O)c1cn(C2COC2)c2c(OC)c(F)c(F)cc2c1=O
80 to 95	COC1(C)c2ccc(C#Cc3cc(Cl)ccc3OCC(=O)O)cc2S(=O)(=O)C1(C)C (centres undefined)
68 to 69	O=C1CC(=Cc2c[nH]c3ccccc23)C(=O)N1Cc1cc(C(F)(F)F)cc(C(F)(F)F)c1
156 to 158	O=C(O)C(Sc1ccccc1)c1ccc(Oc2ccc(Cl)cc2)cc1 (centres undefined)
175	CC(C)=CC(=S)Nc1ccccc1
192 to 193	O=C1N(CC2CCCO2)c2c(Cl)cccc2C12COc1cc3c(cc12)CCO3 (centres undefined)
214 to 215	COC(=O)c1nc2cc(Cl)c3cccnc3c2o1
> 410	N#Cc1ccc(-c2cc3c(O)ncnc3[nH]2)cc1
110	CCN(CCCCc1c[nH]c2ccc(F)cc12)C1COc2c(F)ccc(C(N)=O)c2C1 (centres undefined)
100	C=CCOc1ccc(C(O)CN2CCN(C(c3ccccc3)c3ccccc3)CC2)cc1 (centres undefined)
88 to 90	CN1CCCCC1CCc1ccccc1NC(=O)c1cccnc1 (centres undefined)
214 to 215	CN1CCC2(CC1)Nc1cc(Cl)c(Cl)cc1-n1cccc12
113	O=C(C=Cc1ccccc1)Oc1ccc(Br)cc1
100 to 101	COc1ccc(CNC(SC)=C(C#N)C#N)cc1
123 to 125	CCOc1ccc(C(=O)C2CC=CCC2C(=O)O)cc1Cl (centres undefined)
205 to 206	COC(=NC#N)NCc1ccc(-c2csc(N=C(N)N)n2)o1
204 to 205	O=c1ccn(-c2cccc(C(F)(F)F)c2)nc1-n1ccnc1-c1ccccc1
132 to 133	CC(C)(C)[Si](OCC#Cc1ccc2ncc3c(c2c1)C(O)CCC3)(c1ccccc1)c1ccccc1 (centres undefined)
81 to 85	O=C(Nc1cc(Cl)c(N2CCNCC2)c(Cl)c1)c1ccc(F)c(OCc2cccnc2)c1
135 to 138	COc1ccc2c(c1)C(=O)N(c1ccc(C(C)CO)cc1)C2 (centres undefined)
181	O=C1c2ccccc2S(=O)(=O)N1CCNCC1COc2ccccc2O1 (centres undefined)
93 to 94	COC(=O)CCc1ccc(NC(=O)c2cc(C(C)C)c(C(C)C)o2)cc1
126	COCc1nc2cccnc2n1Cc1ccc(C(=O)N(C(C)C)C2CCCCC2)cc1OC
157 to 161	COc1nc2cc(SCCCc3cc4c(cc3O)CC(CCc3ccccc3)O4)ccc2cc1C(=O)O (centres undefined)

melting point [°C]	SMILES
197 to 198	NS(=O)(=O)c1cccc(-c2ccco2)c1
81 to 82.5	CCN(CC)C(=S)SC(C[N+](=O)[O-])c1ccccc1 (centres undefined)
159 to 162	Cc1nc(C)c(-c2ccnc(Nc3cccnc3)n2)s1
108 to 110	C=C(c1cc(F)ccc1OCc1c(Cl)cccc1Cl)n1ccnc1
70 to 78	CN(C)S(=O)(=O)Cc1ccccc1N
49 to 50	CCCCCN(CCc1ccccc1)C(=O)NCC(C)Cc1ccncc1 (centres undefined)
246 to 249	O=C(O)Cc1c(C(=O)c2cccc(-c3ccco3)c2)[nH]c2cc(Cl)ccc12
112 to 114	COC(=O)NNc1cc(Cl)c(C)c2c1OC(C)C2 (centres undefined)
123 to 128	CC(C)C(C)(C#N)N1C(=O)c2ccc3c(ccn3C)c2C1=O (centres undefined)
85 to 87	C=Cc1cn(-c2c(Cl)cc(C(F)(F)F)cc2Cl)c2ccccc12
164 to 166	CS(=O)(=O)Nc1ccc(C(O)C2CCN(CCc3ccccc3)CC2)cc1 (centres undefined)
216 to 218	O=C(c1ccccn1)c1cnn2c(-c3cccnc3)ccnc12
179 to 180	N#Cc1ccc(-c2ccc(OS(N)(=O)=O)cc2)cc1Cn1cncn1
> 250	Clc1nc(NCc2ccc(-c3ccccn3)cc2)c2[nH]cnc2n1
46 to 48	O=C(Oc1ccccc1)c1cccc([N+](=O)[O-])c1Cl
86 to 88	CCC1(C)C(=O)NN=C1c1ccc(-n2ccnc2)cc1 (centres undefined)
263 to 264	CCCn1c(=O)[nH]c2cnc(-c3ccccc3)nc21
163 to 164	COc1ccc(N(C)c2nc(N)nc3[nH]c4cccc(Cl)c4c23)cc1
110 to 115	CN(C)c1cccc(OCC(=O)C=P(c2ccccc2)(c2ccccc2)c2ccccc2)c1
100 to 102	CCC(=O)c1cc(C2(c3cccc(Br)c3)N=C(N)N(C)C2=O)cn1CC (centres undefined)
96 to 97	CCOP(=O)(Cc1ccc(C(=S)N2CCCc3ccccc32)cc1)OCC

SMILES	melting point [°C]
CCCN1CC(Nc2ccc3c(c2)CCO3)CC2c3cccc4c3c(cn4C)CC21 (centres undefined)	137 to 138
CCC1(O)CC(=O)OCc2c1cc1n(c2=O)Cc2c-1nc1cc(F)ccc1c2-c1ccccc1 (centres undefined)	> 250
CCCN1CC(C)C=C2c3cccc4c3C(CN4)CC21 (centres undefined)	135 to 137
COc1cccc2c1C(=O)c1ccccc1C21CCN(C)CC1	170 to 172
CC(c1ccc(F)cc1)N1CC(C)(C)C(Oc2ccc(C#N)c(C(F)(F)F)c2)C1=O (centres undefined)	82 to 83
CCOC(=O)c1ccc(OCCc2c[nH]cn2)cc1	160 to 164
